According to a melting point compilation (Tetko et al.; mined from patent text by program, amines drawn as free bases though some values may be those of a salt):

Row | melting point [°C] | Structure (SMILES)
1 | 85 to 87 | O=C1C2CCCCC2C(=O)N1c1cc(C(F)(F)F)cc(C(F)(F)F)c1 (configuration not stated)
2 | > 250 | COCCOc1ccc(N)cc1S(=O)(=O)O
3 | 183 | CC(C)(C)OC(=O)N[C@@H](Cc1ccccc1Cl)C(=O)NC1CCC(Nc2cccc3c2C(=O)c2ccccc2C3=O)CC1 (some centres not stated)
4 | 231 to 232 | Cc1n[nH]cc1-c1cccc2c1nnn2-c1ccnc(NC2CCN(S(C)(=O)=O)CC2)n1
5 | 73 to 75 | Cn1nnnc1SCCCC(=O)c1ccccn1
6 | 98 to 99 | Cc1oc(-c2ccccc2)nc1COc1cncc(CCl)c1
7 | 246 to 253 | COc1ccc(-n2c(-c3ccccn3)nc(SC)c(C#N)c2=O)cc1
8 | 106 to 110 | O=C(O)CCNc1ccccc1CNC(=O)C1Cc2ccccc2N1S(=O)(=O)c1ccc(-c2ccc(F)cc2F)cc1 (configuration not stated)
9 | 99 to 100 | CSc1noc(-c2ccc(OCCCc3ccccc3)cc2)c1C#N
10 | 169 to 171 | O=C1c2ccccc2S(=O)(=O)N1CS(=O)(=O)c1ccccc1
11 | 210 to 214 | CN(C)n1cc(C(=O)NCc2ccc(Cl)cc2)c(=O)c2cc(C#CCO)ccc21
12 | 101 to 104 | Cc1c(CN(C)C)cc(C(C)(C)C)c(O)c1C
13 | 134 to 136 | CC(CCCC(C)C1C(O)CC2C3CC=C4CC(O)CCC4(C)C3CCC21C)CN1C(=O)c2ccccc2C1=O (configuration not stated)
14 | 162 to 163 | Cc1ccc2c(c1)C(C(=O)Nc1c(C)cccc1C)c1ccccc1CO2 (configuration not stated)
15 | 115 to 116 | COC(=O)/C=C/c1occc(=O)c1OCC(=O)OC(C)(C)C
16 | 52 to 55 | CCN1CCN(C)C[C@@H](NC(=O)c2cc(Br)c(NC)nc2OC)C1
17 | 140 to 142 | COc1cc(NC(=O)c2ccccc2Cl)ccc1C(=O)N1CCCC(OCCNS(=O)(=O)C(F)(F)F)c2cc(Cl)ccc21 (configuration not stated)
18 | 253 to 254 | O=C(O)Cc1cc2c3ccccc3[nH]c(=O)n2n1
19 | 82 to 83 | CC(C)(C)OC(=O)CC(=O)c1ccc(C#N)cc1
20 | 128 | CC(=O)OC1CCC2(C)C(=CCC3C2CCC2(C)C(C(C)=O)CCC32F)C1 (configuration not stated)
21 | 107 to 108 | OC(CCc1ccc(OCc2ccccc2)c(OCc2ccccc2)c1)C1CCCCC1 (configuration not stated)
22 | 220 to 221 | CC(C)(C)c1cc(CCc2nnc(N)o2)cc(C(C)(C)C)c1O
23 | 197 | COc1cc2cc3c(nc2cc1OC)CCc1cc(Cl)ccc1-3

Row | melting point [°C] | Structure (SMILES)
24 | 160 to 170 | CCOC(=O)c1[nH]cc2c1NC1=C(C(=O)CCC1)C2c1ccc(Sc2nc3cc(F)c(F)cc3[nH]2)o1 (configuration not stated)
25 | 45 to 50 | C=C=CC(C)(O)c1ccc(Br)cc1 (configuration not stated)
26 | 224 to 226 | C=CCNC(=NC#N)Nc1ccc(C2=NNC(=O)CC2C)cc1 (configuration not stated)
27 | 150 to 152 | N#CCCN1CC2C(C1)C2Nc1ncc2cc(-c3ccccc3Cl)c(=O)n(C3CC3)c2n1 (configuration not stated)
28 | 210 to 212 | CN1C(=O)Cc2cc(C(=O)[C@H]3CC[C@H]3C(=O)O)ccc21 (relative stereo)
29 | 109 to 111 | CCC1c2cc(F)ccc2-c2ccccc2N1C(=O)c1ccc(O)cc1F (configuration not stated)
30 | 125 to 126 | COc1ccc(CCNC(=O)N(C)O)cc1OCc1ccccc1
31 | 151 to 152 | Cn1cc(C(=O)NCc2ccc(Cl)cc2)c(=O)c2cc(CCCCCO)oc21
32 | 105 to 107 | CC(=Cc1ccccc1)C(C#N)=NOS(C)(=O)=O
33 | 167 to 169 | CC(=O)C1CCC2C3CCC4=CC(=O)C=CC4(C)C3C=CC12C (configuration not stated)
34 | 127 to 133 | COc1c(NC(=O)c2ccc(C)c(-n3cc(C(=O)NCc4cccnc4)cn3)c2)cc(C(C)(C)C)cc1NS(C)(=O)=O
35 | 261 | Cc1cc(-c2cc(C(F)F)n3ncc(C(=O)Nc4cccc(S(C)(=O)=O)c4)c3n2)ccc1C(F)(F)F
36 | 171 to 172 | CCOCCNCCOc1ccc(NC(=O)c2ccccc2NS(C)(=O)=O)cc1
37 | 129 to 130 | Cc1oc(C2CC2)nc1COc1ccc(CC(OC(C)C)C(=O)O)c2ccccc12 (configuration not stated)
38 | 172 to 174 | CC=C(NC(=O)CC(C)C)C(=O)O
39 | 155 to 156 | CC(C)(C)c1cc(CCc2ccccc2NC(=O)N2CCN(c3ccccc3)CC2)cc(C(C)(C)C)c1O
40 | 188 | Cn1c(=S)n(CCN2CCC(Nc3nc4ccccc4n3Cc3ccco3)CC2)c(=O)c2ccccc21
41 | 191 to 193 | CC(C)(C)NC(=O)c1nn(-c2ccc(Br)cc2)c2c1C1CCC2CC1
42 | 77 to 81 | COC(=O)c1ccc(OCCNC(=O)C2Cc3ccccc3N2S(=O)(=O)c2ccc(-c3ccc(F)cc3)cc2)cc1F (configuration not stated)
43 | 107 to 108 | CCOC(=O)c1cn(C)cc(-c2ccccc2)c1=O
44 | 166 to 167 | COc1cccc(-c2nc(-c3ccccc3)c3ncc(-c4cccc5ccccc45)cc3n2)c1
45 | 97 to 102 | CCCc1c(OCCCCC(=O)O)ccc(C(C)=O)c1O
46 | 143 | c1ccc(C(c2ccnc3ccccc23)n2ccnc2)cc1 (configuration not stated)

Row | melting point [°C] | Structure (SMILES)
47 | 168 to 170 | COc1cc2c(Nc3cccc(C)c3)ncnc2cc1OCCN1CCOCC1
48 | 193 to 196 | COc1cc(OCCCN2CCOCC2)c(C=CC(=O)c2ccc(S(N)(=O)=O)cc2)cc1-c1cccs1
49 | 190 to 202 | O=C(O)CCc1c[nH]c2c(C(=O)c3ccc(Cl)cc3)cccc12
50 | 212 to 213 | CC1(C)OC(=O)Nc2ccc(-c3cccc(C#CC#N)c3)cc21
51 | 157 to 158 | COc1ccc(-c2cc(Br)c3cc(OC)ccc3n2)cc1
52 | 114 to 116 | Nc1cncc(NC(=S)NC2CCCCC2)c1
53 | 146 to 150 | Cc1ccc(-c2ccc3c(c2)C=C(C(=O)N[C@H]2CC[C@H](CN(C)C4CCN(C(=O)OC(C)(C)C)CC4)CC2)CCO3)cc1
54 | 186 to 188 | COc1cc(OC)cc(N2CCN(C(=O)[C@](C)(C#N)[C@H](c3ccccc3OC)c3cccc4ccccc34)CC2)c1
55 | > 270 | Clc1sc(Cl)c2c1CNC2
56 | 191 to 192 | CCCCc1ncc(/C=C(/C=C/C(=O)O)Cc2cccs2)n1Cc1ccccc1Cl
57 | 62 | c1ccc(Oc2noc(-c3ccccc3)n2)cc1
58 | 80 to 81.5 | C#Cc1cc(Cl)cc(Cl)c1
59 | 119 to 123 | O=C(NC1CN(C(C(=O)O)c2ccc(OC(=O)c3ccccc3)cc2)C1=O)C(=NOC(=O)c1ccccc1)c1ccccc1 (configuration not stated)
60 | 228 to 229 | O=C(N[C@@H]1CCc2c(Br)ccc(N3CCNCC3)c2C1)c1ccc(N2CCOCC2)cc1
61 | 168 to 169 | CC(C)c1cccc(C(C)C)c1NC(=O)NCC1(c2ccccc2)CCCCC1
62 | 195 to 198 | CC(C)(C)NCC(O)COc1cc(Cl)ccc1-c1ccc(=S)[nH]n1 (configuration not stated)
63 | 105 to 107 | CCOC(=O)CNS(=O)(=O)c1ccc(N2CCC(NC[C@H](O)c3ccc(O)c(NS(C)(=O)=O)c3)CC2)cc1
64 | 191 to 198 | CN1CCC(CCCOc2cc3ncnc(Nc4cccc(Br)c4)c3cc2N)CC1
65 | 101 to 103 | CC(=O)c1ccc(CC(C)OS(=O)(=O)c2ccc(C)cc2)s1 (racemic)
66 | 81 to 82 | COc1cc(C=CCO)ccc1OCc1ccccc1
67 | 56 | CCCCCCCc1cnc(-c2ccc(OCC(F)CCCCCC)c(F)c2F)nc1 (configuration not stated)
68 | 130 | CC1(CCN2C(=O)c3cccc([N+](=O)[O-])c3C2O)OCCO1 (configuration not stated)
69 | 198 | C[C@H](NC(=O)c1cc(Cl)cnc1Oc1ccc(F)cc1)c1ccc(C(=O)O)cc1

Row | melting point [°C] | Structure (SMILES)
70 | 168 to 170 | COC(=O)C1=C(O)c2sc(C(F)(F)F)cc2S(=O)(=O)N1
71 | 164 to 166 | Cn1cc(-c2ccccc2)c(=O)c(-c2ccc(C(F)(F)F)cc2)c1
72 | 60 | COc1cc2cc(C3CCCCC3)sc2c(Cl)c1Cl
73 | 207 to 209 | CC(=O)C1CCC2C3CC=C4CCCCC4(C)C3CCC12C (configuration not stated)
74 | 164 to 166 | COc1coc2cc(NS(C)(=O)=O)c(Oc3ccccc3)cc2c1=O
75 | 146 to 149 | Cc1nc(N2CCN(Cc3ccc(F)cc3)C2=O)sc1C(=O)NCc1ccncc1
76 | 98 to 100 | O=Cc1cccn2cc(C(F)(F)F)nc12
77 | 131 to 132 | CC(C)c1nc(COCc2ccccc2)n(C(C)F)c1Sc1cc(Cl)cc(Cl)c1 (configuration not stated)
78 | 194 to 198 | O=CN1CCN(Cc2nc3ccccc3[nH]2)CC1
79 | 60.5 to 61.6 | CCCCCCn1c(-c2ccc3c(c2)OCO3)nc2ccccc21
80 | 192 to 195 | CS(=O)(=O)c1ccc(N2C=CC(N3CCCC3)C(=O)N2c2ccc(F)cc2)cc1 (configuration not stated)
81 | 205 to 215 | O=C(O)c1cn(-c2ccc(F)cc2)c(C=Cc2ccncc2)cc1=O
82 | 123 to 126 | C=CC[C@H](CC(=O)OC(C)(C)C)C(=O)N[C@H](C(=O)N[C@H](C)c1ccccc1)C(C)(C)C
83 | 216 to 217 | CS(=O)(=O)c1c2ccccc2c(C=O)c2ccccc12
84 | 218 to 221 | Cc1cc(-c2sc(N3CCN(Cc4ccc(F)cc4)C3=O)nc2C)n[nH]1
85 | > 300 | Oc1c(Cl)cc(-c2cnn3c(O)ncnc23)cc1Cl
86 | 157 to 159 | CC(=O)N1c2cc(Cl)ccc2Sc2ccc(C(C)N(O)C(N)=O)cc21 (configuration not stated)
87 | 189 to 191 | COc1ccc(N2CCOCC2)cc1NC(=S)c1nc2ccc(C)nc2[nH]1
88 | 137 to 139 | Cn1ncc2c1-c1c(Oc3ccc(O)cc3)sc(C(N)=O)c1CC2
89 | 159 to 160 | CCOc1cc(OCC)c2c(c1)S(=O)(=O)N(COc1cc(C(F)(F)F)nn1-c1ccccc1)C2=O
90 | 143 | O=C(c1ccccc1)C(c1ccc(Cl)cc1)c1c(Cl)cc(-n2ncc(=O)[nH]c2=O)cc1Cl (configuration not stated)

Row | Structure (SMILES) | melting point [°C]
91 | CN(C)CC#CCNC(=O)/C=C\C(=O)O | 155 to 157
92 | O=C(N[C@@H]1CN2CCC1CC2)c1cccc2c1cc1n2CCCC1 | 163 to 164
93 | CN(C)C1(c2ccccc2)CCC(c2[nH]c3ccccc3c2Cc2ccccc2)CC1 (configuration not stated) | 194 to 199
94 | Cc1ccc(-c2ccnc3c(C(=O)c4cccs4)cnn23)cc1NC(=O)CC(C)C | 185 to 187
95 | CN(C)CCc1ccc(O)c2nc[nH]c12 | 245 to 252
96 | NC(=O)C1CCN(C(=O)CNC(=O)CN2CCCC2=O)CC1 | 217 to 219
97 | CN1CCC(n2ccc3ccccc32)CC1 | 58
